Where a name gives a salt, the structure may show the parent alone.
How the values were obtained:
muricidal behavior = test: Anti-muricide assay; assay type: in vivo, Male Long Evans rats; conditions: Rattus norvegicus, ip; rats, intraperitoneal injection, mouse presented at 30 and 60 minutes; dosage at which 50% of the tested rats do not kill mice
Method: Anti-muricide assay: Male Long Evans rats weighing 225-250 g are housed I rat per cage, and killers (rats show an instinctive mouse killing behavior (muricide)) are selected initially after being deprived of food for approximately 66 hours. This is the only time the rats are deprived of food. Food, ad libitum, is-avaiable on the cage floor since food bins are not practical because they afford a hiding place for mice. The rats are tested for muricidal behavior the following day and once a week thereafter; non-killers are always eliminated. A non-killer is a rat which fails to kill a mouse placed into his cage within 5 minutes. Drugs are tested in the afternoon of the day following this weekly check for persistance of the killing behavior. Since the rats are not deprived of food or water and rarely attempt to eat the mouse, this behavior is not motivated by hunger. Four weeks after the first test for killing, the rats are injected, i.p., with placebo and then tested 30/60 minutes after the injection. […] Only rats that consistantly kill mice placed in their home cages are used for drug testing. Every treatment-group is comprised of 5 rats. […] Blockade of muricidal behavior is determined by observing the number of surviving mice 5 minutes after being introduced into the rat cages.

methamphetamine = test: Methamphetamine reversal assay; assay type: in vivo, mice
[1] = Acute oral toxicity (LD50); conditions: mouse, in vivo; oral dose in mice

SMILES | ED50 (muricidal behavior) [mg/kg] | ED50 (methamphetamine; Mus musculus, po, 4 h) [mg/kg] | LD50 [1] [mg/kg] | protection from methamphetamine lethality (methamphetamine; control, perphenazine at 1 mg/kg, aggregated mice, methamphetamine 15 mg/kg i.p.)
CN1CCc2cc(Cl)c(OC(=O)N(C)C)cc2[C@H](c2ccccc2)C1 [(S)-7-chloro-8-dimethylaminocarbonyloxy-3-methyl-1-phenyl-2,3,4,5-tetrahydro-lH-3-benzazepine hydrochloride] | 5.7 | 1.2 | > 300 | 
OCCN1CCN(CCCN2c3ccccc3Sc3ccc(Cl)cc32)CC1 [perphenazine, reference compound] |  |  |  | complete protection
